The record followed here is patent US8871962B2, “Method for producing sanshool” (Tsumura & Co., priority 2010, dated 2014).

A short description of this series: Stability test of sample solutions under exposure to fluorescent light (HPLC peak area). The format is physicochemical. The following applies: acetonitrile sample solution (HαS 0.26 mg/mL, compound 5 0.49 mg/mL), room temperature, 24 hours under fluorescent light. The method, then: (HPLC Analysis Conditions)
Column: TSK-GEL 80TS (φ4.6 mm×150 mm) (Tosoh, Japan); column temperature: 40° C.; flow rate: 1.0 mL/min; measurement wavelength: 200 to 400 nm; mobile phase: Liquid A acetonitrile, Liquid B 0.1% Na2S2O3 aqueous solution (Liquid A: 40%, Liquid B: 60%); and measurement mode: isocratic mode.
HαS (27.6 mg) and the compound 5 (50.4 mg) were diluted to 100 mL with anhydrous acetonitrile (HPLC grade) to prepare 0.26 mg/mL and 0.49 mg/mL sample solutions. The sample solutions, dispensed in 50 mL aliquots, were allowed to stand at room temperature for 24 hours under exposure to fluorescent light. Quantitative analysis was performed under the above HPLC analysis conditions to measure peak area values of the HαS and the diene iron complex compound (compound 5).

For the compound “tricarbonyl[(8,9,10,11-η)-(2E,6Z,8E,10E)-N-(2-hydroxy-2-methylpropyl)dodeca-2,6,8,10-tetraenamide]iron [compound 5]”, the “peak area value (content) relative to initial level after light exposure” value is recorded as “approximately 80%”.

For the compound `C/C=C/C=C/C=C\CC/C=C/C(=O)NCC(C)(C)O` [HαS, (2E,6Z,8E,10E)-N-(2-hydroxy-2-methylpropyl)dodeca-2,6,8,10-tetraenamide], the “peak area value (content) relative to initial level after light exposure” value was “approximately 10%”.
